Results on 2 substances are retold here after PMC6085462 (Frontiers in Microbiology, 2018).

“Also recorded” adds a separate entry of the source. Where no end group is shown, it is not given here.

Data set [1] has as its system pancreatin; trypsin. The data set can be described thus: Duodenal solution: 8% pancreatin, 4% porcine bile solutions and 2 mg/mL trypsin solution in intestinal electrolyte solution adjusted to pH 6.3. Particulars: 37°C, up to 120 min.
Data set [2] relates to Pancreatin from porcine pancreas. The data set is described as follows: pancreatin alone at a final concentration of 8 mg/mL in the intestinal electrolyte solution. Particulars: 37°C, up to 120 min.
Data set [3] deals with elastase type IIA from porcine pancreas. The data set can be described thus: elastase alone in the intestinal electrolyte solution. The following applies: 37°C, up to 120 min.
The subject of data set [4] is elastase type IIA from porcine pancreas (EC 3.4.21.36). The data set can be described thus: elastase alone at a final concentration of 8 mg/mL in the intestinal electrolyte solution. Particulars: 37°C, up to 120 min.
The test system of a further data set is pepsin; lipase. The data set is described as follows: TIM-1 gastric compartment: simulated gastric secretions containing pepsin (0.19 mg/mL) or lipase (0.25 mg/mL) in an electrolyte solution, pH 4.5 decreased gradually to 1.7. The following applies: up to 60 min.
The test system of data set [5] is pancreatin; trypsin. The data set can be described thus: static duodenal model: 8% pancreatin, 4% porcine bile, 2 mg/mL trypsin in intestinal electrolyte solution, pH 6.3. Particulars: bovine trypsin, 37°C, up to 120 min.
The test system of data set [6] is α-chymotrypsin from bovine pancreas (EC 3.4.21.1). The data set can be described thus: α-chymotrypsin alone at a final concentration of 8 mg/mL in the intestinal electrolyte solution. Particulars: 37°C, up to 120 min.
Another data set relates to pancreatin. The data set can be described thus: pancreatin alone in the intestinal electrolyte solution. The following applies: porcine, 37°C, up to 120 min.
For data set [7] the following is noted: ref Kheadr et al., 2010; cited from earlier work. From the text: A bacteriocin is most often defined as a peptide of molecular mass mostly <10,000 Da that is inhibitory to species closely related to the producer species. Bacteriocins differ from antibiotics in being synthesized by translation of an mRNA transcript, having generally a narrow spectrum of activity and being effective at concentrations as low as nanomolar ([Nes, 2011]). Some bacteriocins may undergo post-translational modifications and as such belong to the family of ribosomally-synthesized and post-translationally-modified peptides (RiPPs) ([Arnison et al., 2013]) Their potential as antimicrob ...

Take GGAGHVPEYFVGIGTPISFYG: the cleaved bond result is given as “Y9-F10, first_seen, 0 min; also recorded: F10-V11, first_seen, 0 min; also recorded: I13-G14, first_seen, 0 min; also recorded: G12-I13, 60 min; also recorded: V11-G12, 60 min” in the data set with pancreatin; trypsin [1]; “V11-G12, 0 min; also recorded: Y9-F10, major, 0 min; also recorded: F10-V11, 0 min; also recorded: I13-G14, 0 min” in data set [2]; “F10-V11, 0 min; also recorded: I13-G14, 0 min; also recorded: Y9-F10, 0 min” in [3]; “F10-V11, 0 min; also recorded: I13-G14, major, 0 min; also recorded: Y9-F10, 0 min; also recorded: V11-G12, 0 min” in data set [4]; “G14-T15, 60 min” with pepsin; lipase; “I13-G14, 60 min; also recorded: F10-V11, 60 min; also recorded: Y9-F10, 60 min; also recorded: Y9-F10, 120 min; also recorded: V11-G12, 120 min” in the data set on pancreatin; trypsin [5]. Besides, the cleaved bond entry in data set [6] was “Y9-F10, major, 0 min; also recorded: F10-V11, 0 min”; in the data set on pancreatin it was “F10-V11, 0 min; also recorded: Y9-F10, 0 min; also recorded: I13-G14, 0 min”.
As to “pediocin PA-1 (KYYGNGVTCGKHSCSVDWGKATTCIINNGAMAWATGGHQGNHKC; ends and bridges not checked; cysteine pairing not given here; UniProt P29430 19-62, looked up) [class IIa bacteriocin]”, the “Antibacterial activity in the small intestine under gastrointestinal conditions” value in data set [7] is given as “losing completely its antibacterial activity”.
